Laboratory results taken from ChEMBL document CHEMBL5357061, “Enhanced Inhibition of Cancer Cell Migration by a Planar Catechin Analog” (ACS Med Chem Lett, 2024).
Activity calls are given as the source filed them. The rule behind the calls is not given here.

Experiments:
[1] = tested on: RGM1; test: Inhibition of cell migration in rat RGM1 cells assessed as reduction in healing of scratched areas at 200 uM measured after 12 hrs by scratch-wound healing assay; format: functional, cell-based
[2] = tested on: RGK1; test: Inhibition of cell migration in rat RGK1 cells assessed as reduction in healing of scratched areas at 200 uM measured after 12 hrs by scratch-wound healing assay; format: functional, cell-based

| Compound | inhibition [1] | inhibition [2] |
| --- | --- | --- |
| Oc1cc(O)c2c(c1)O[C@H](c1ccc(O)c(O)c1)[C@@H](O)C2 | inactive | inactive |
| CC1(C)O[C@H]2Cc3c(O)cc(O)cc3O[C@@H]2c2cc(O)c(O)cc21 | Active | Active |
